pIC50: −log10 of the molar value.

Chain of Endothelial lipase (EL) (Q9Y5X9 21-500): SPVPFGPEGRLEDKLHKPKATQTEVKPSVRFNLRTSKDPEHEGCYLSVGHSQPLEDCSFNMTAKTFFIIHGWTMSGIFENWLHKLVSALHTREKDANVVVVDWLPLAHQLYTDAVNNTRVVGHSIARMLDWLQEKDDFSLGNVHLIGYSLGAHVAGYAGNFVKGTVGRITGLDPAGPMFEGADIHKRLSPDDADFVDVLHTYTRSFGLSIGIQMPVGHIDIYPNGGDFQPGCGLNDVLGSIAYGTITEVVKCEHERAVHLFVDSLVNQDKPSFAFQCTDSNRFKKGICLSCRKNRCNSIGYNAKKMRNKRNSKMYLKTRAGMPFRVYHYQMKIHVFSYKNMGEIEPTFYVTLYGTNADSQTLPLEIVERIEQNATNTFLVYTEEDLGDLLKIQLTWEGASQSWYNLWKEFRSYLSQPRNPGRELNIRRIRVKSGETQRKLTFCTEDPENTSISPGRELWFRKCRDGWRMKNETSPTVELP

The first experiment has as its target Endothelial lipase (EL) (Homo sapiens (Human), UniProt Q9Y5X9). The experiment in a line: Endothelial lipase (EL) enzymatic assay with fluorescent substrate A10070 in DMPG vesicles. The experiment is classed as biochemical.
Details: not given
An outline of the steps: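 Vesicles prepared: A10070 dried with DMPG, resuspended in HEPES pH 8.0/NaCl/EDTA, sonicated on ice. Enzyme incubated with compound 30 min at 37° C. Reaction started with 1:10 diluted vesicles. Fluorescence (490/530 nm) followed 60 min; slope from 300–900 secs gives rate.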
The molecule `CS(=O)(=O)C(C(=O)NCC(=O)NC1CC1)c1nc2cc(F)c(-c3cnc(-c4ccccc4)nc3)cc2s1` (stereo not drawn) [Example 202, N-[(cyclopropyl-carbamoyl)methyl]-2-[5-fluoro-6-(2-phenylpyrimidin-5-yl)-1,3-benzothiazol-2-yl]-2-methanesulfonyl-acetamide] gave a pIC50 of 8.30.
On the same count and under the same terms, the value for `CC(C)S(=O)(=O)C(C(=O)NCC(=O)NC1CC1)c1nc2c(F)cc(-c3ccc(C(=O)N4CCC4)cc3)cc2s1` (stereo not drawn) [Example 284, 2-{6-[4-(azetidine-1-carbonyl)phenyl]-4-fluoro-1,3-benzothiazol-2-yl}-N-[(cyclopropyl-carbamoyl)methyl]-2-(propane-2-sulfonyl)acetamide] was 7.92.
On the same count and under the same terms, as for `COCCNC(=O)c1ccc(-c2ccc3nc(C(C(=O)NCC(=O)NC4CC4)S(=O)(=O)CCOC)sc3c2)cc1OC` (stereo not drawn) [Example 409, 4-[2-({[(cyclopropyl-carbamoyl)methyl]carbamoyl}(2-methoxyethane-sulfonyl)methyl)-1,3-benzothiazol-6-yl]-2-methoxy-N-(2-methoxyethyl) benzamide], the figure is 7.64; as for `COCCS(=O)(=O)C(C(=O)NCC(=O)NC1CC1)c1nc2cc(-c3cccnc3C(F)(F)F)ccc2s1` (stereo not drawn) [Example 61, N-[(cyclopropyl-carbamoyl)methyl]-2-(2-methoxyethane-sulfonyl)-2-{5-[2-(trifluoromethyl)pyridin-3-yl]-1,3-benzothiazol-2-yl}acetamide], 8.30.
The same measure, in the same setting: the value for `COCCS(=O)(=O)C(C(=O)NCC(=O)NC1CC1)c1nc2ccc(-c3ccc(N(C)C(C)=O)cc3)cc2s1` (stereo not drawn) [Example 27, N-[(cyclopropyl-carbamoyl)methyl]-2-(2-methoxy-ethanesulfonyl)-2-{6-[4-(N-methylacetamido)phenyl]-1,3-benzothiazol-2-yl}acetamide] was 7.24.
Consider `CS(=O)(=O)C(C(=O)NCC(=O)NC1CC1)c1nc2ccc(-c3ccccc3)cc2s1` (stereo not drawn) [Example 608, N-[(cyclopropyl-carbamoyl)methyl]-2-methanesulfonyl-2-(6-phenyl-1,3-benzothiazol-2-yl)acetamide], for which the pIC50 is 6.82.
Consider `COCCS(=O)(=O)C(C(=O)NCC(=O)NC1CC1)c1nc2cc(-c3ccnc(C(F)(F)F)c3)ccc2s1` (stereo not drawn) [Example 63, N-[(cyclopropyl-carbamoyl)methyl]-2-(2-methoxyethane-sulfonyl)-2-{5-[2-(trifluoromethyl)pyridin-4-yl]-1,3-benzothiazol-2-yl}acetamide], for which the pIC50 was 8.30.
Molecule `CN(C)C(=O)c1ccc(-c2ccc3nc(C(C(=O)NCC(=O)NC4CC4)S(=O)(=O)Cc4ccc(F)cc4)sc3c2)cc1` (stereo not drawn) [Example 214, 4-[2-({[(cyclopropyl-carbamoyl)methyl]carbamoyl}(4-fluorophenyl)methanesulfonyl-methyl)-1,3-benzothiazol-6-yl]-N,N-dimethyl-benzamide] had a negative logarithm of the IC50 (pIC50) of 7.74.
The same measure, in the same setting: the value for `Cc1cc(-c2cc3sc(C(C(=O)NCC(=O)NC4CC4)S(C)(=O)=O)nc3cc2F)ccn1` (stereo not drawn) [Example 250, N-[(cyclopropyl-carbamoyl)methyl]-2-[5-fluoro-6-(2-methylpyridin-4-yl)-1,3-benzothiazol-2-yl]-2-methanesulfonyl-acetamide] was 7.96; that for `Cc1cccc(S(=O)(=O)C(C(=O)NCC(=O)NC2CC2)c2nc3cc(-c4ccc(F)nc4)ccc3s2)c1` (stereo not drawn) [Example 438, N-[(cyclopropyl-carbamoyl)methyl]-2-[5-(6-fluoropyridin-3-yl)-1,3-benzothiazol-2-yl]-2-(3-methylbenzene-sulfonyl)acetamide] was 7.48; that for `Cc1cc2nc(C(C(=O)NCC(=O)NC3CC3)S(=O)(=O)C(C)C)sc2cc1-c1ccc(-c2ccccn2)cc1` (stereo not drawn) [Example 261, N-[(cyclopropyl-carbamoyl)methyl]-2-{5-methyl-6-[4-(pyridin-2-yl)phenyl]-1,3-benzothiazol-2-yl}-2-(propane-2-sulfonyl) acetamide] was 8.40.
For `O=C(CNC(=O)C(c1nc2cc(F)c(-c3ccc4c(c3)CCCN4C(=O)Cc3c(F)cccc3F)cc2s1)S(=O)(=O)CCC(F)(F)F)NC1CC1` (stereo not drawn) [Example 590, N-[(cyclopropyl-carbamoyl)methyl]-2-(6-{1-[2-(2,6-difluorophenyl)acetyl]-1,2,3,4-tetrahydroquinolin-6-yl}-5-fluoro-1,3-benzothiazol-2-yl)-2-(3,3,3-trifluoropropane-sulfonyl)acetamide], the pIC50 is 8.10.
The same measure, in the same setting: as for `CC(C)n1cc(-c2cc3nc(C(C(=O)NCC(=O)NC4CC4)S(=O)(=O)C(C)C)sc3cc2F)ccc1=O` (stereo not drawn) [Example 268, N-[(cyclopropyl-carbamoyl)methyl]-2-{6-fluoro-5-[6-oxo-1-(propan-2-yl)-1,6-dihydropyridin-3-yl]-1,3-benzothiazol-2-yl}-2-(propane-2-sulfonyl)acetamide], the figure is 7.96.
Same read-out and setting: as for `CN(C)S(=O)(=O)C(C(=O)NCC(=O)NC1CC1)c1nc2c(F)cc(-c3ccc4c(=O)n(C)ccc4c3)cc2s1` (stereo not drawn) [Example 493, N-[(cyclopropyl-carbamoyl)methyl]-2-(dimethyl-sulfamoyl)-2-[4-fluoro-6-(2-methyl-1-oxo-1,2-dihydro-isoquinolin-6-yl)-1,3-benzothiazol-2-yl]acetamide], the figure is 9.00; as for `CC(C)S(=O)(=O)C(C(=O)NCC(=O)NC1CC1)c1nc2cc(C(F)(F)F)c(-c3ccccc3)cc2s1` (stereo not drawn) [Example 169, N-[(cyclopropyl-carbamoyl)methyl]-2-[6-phenyl-5-(trifluoromethyl)-1,3-benzothiazol-2-yl]-2-(propane-2-sulfonyl) acetamide], 7.59; as for `COCCS(=O)(=O)C(C(=O)NCC(=O)NC1CC1)c1nc2cc(-c3cnnc(C)c3)ccc2s1` (stereo not drawn) [Example 67, N-[(cyclopropyl-carbamoyl)methyl]-2-(2-methoxyethane-sulfonyl)-2-[5-(6-methylpyridazin-4-yl)-1,3-benzothiazol-2-yl]acetamide], 7.80.
The same measure, in the same setting: the value for `CCCCCS(=O)(=O)C(C(=O)NCC(=O)NC1CC1)c1nc2cc(F)c(-c3ccc(NC(=O)OCc4ccccc4)cc3)cc2s1` (stereo not drawn) [Example 48, benzyl N-{4-[2-({[(cyclopropyl-carbamoyl)methyl]carbamoyl} (pentane-1-sulfonyl)methyl)-5-fluoro-1,3-benzothiazol-6-yl]phenyl}carbamate] was 9.00; that for `O=C(CNC(=O)C(c1nc2cc(F)c(-c3ccc(NC(=O)OCc4ccccc4)cc3)cc2s1)S(=O)(=O)C1CC1)NC1CC1` (stereo not drawn) [Example 50, benzyl N-(4-{2-[(cyclopropane-sulfonyl) ({[(cyclopropyl-carbamoyl)methyl]carbamoyl}methyl]-5-fluoro-1,3-benzothiazol-6-yl}phenyl) carbamate] was 8.52; that for `COCCOC(=O)Nc1ccc(-c2cc3sc(C(C(=O)NCC(=O)NC4CC4)S(C)(=O)=O)nc3cc2F)cc1` (stereo not drawn) [Example 533, 2-methoxyethyl N-{4-[2-({[(cyclopropyl-carbamoyl)methyl]carbamoyl} (methanesulfonyl)methyl)-5-fluoro-1,3-benzothiazol-6-yl]phenyl} carbamate] was 8.52.
Consider `COCCS(=O)(=O)C(C(=O)NCC(=O)NC1CC1)c1nc2cc(-c3ccc4c(c3)CC(=O)N4)c(F)cc2s1` (stereo not drawn) [Example 349, N-[(cyclopropyl-carbamoyl)methyl]-2-[6-fluoro-5-(2-oxo-2,3-dihydro-1H-indol-5-yl)-1,3-benzothiazol-2-yl]-2-(2-methoxyethane-sulfonyl)acetamide], for which the pIC50 is 7.38.
`CN(C)S(=O)(=O)C(C(=O)NCC(=O)NC1CC1)c1nc2c(F)cc(-c3ccccc3)cc2s1` (stereo not drawn) [Example 501, N-[(cyclopropyl-carbamoyl)methyl]-2-(dimethyl-sulfamoyl)-2-(4-fluoro-6-phenyl-1,3-benzothiazol-2-yl)acetamide] showed a pIC50 of 8.10.
On the same count and under the same terms, the value for `COCCS(=O)(=O)C(C(=O)NCC(=O)NC1CC1)c1nc2ccc(-c3ccc(C(=O)NCC(F)(F)F)cc3)cc2s1` (stereo not drawn) [Example 97, 4-[2-({[(cyclopropyl-carbamoyl)methyl]carbamoyl}(2-methoxyethane-sulfonyl)methyl)-1,3-benzothiazol-6-yl]-N-(2,2,2-trifluoroethyl) benzamide] was 8.40; that for `COCCS(=O)(=O)C(C(=O)NCC(=O)NC1CC1)c1nc2cc(-c3ccnc(F)c3)ccc2s1` (stereo not drawn) [Example 76, N-[(cyclopropyl-carbamoyl)methyl]-2-[5-(2-fluoropyridin-4-yl)-1,3-benzothiazol-2-yl]-2-(2-methoxyethane-sulfonyl)acetamide] was 7.49.
Turning to `COCCS(=O)(=O)C(C(=O)NCC(=O)NC1CC1)c1nc2cc(-c3cccc(F)n3)ccc2s1` (stereo not drawn) [Example 89, N-[(cyclopropyl-carbamoyl)methyl]-2-[5-(6-fluoropyridin-2-yl)-1,3-benzothiazol-2-yl]-2-(2-methoxyethane-sulfonyl) acetamide], the pIC50 is 6.77.
With `O=C(CNC(=O)C(c1nc2cc(F)c(-c3ccc(NC(=O)OCc4ccccc4)nc3)cc2s1)S(=O)(=O)CCN1CCOCC1)NC1CC1` (stereo not drawn) [Example 424, benzyl N-{5-[2-({[(cyclopropyl-carbamoyl)methyl]carbamoyl}[2-(morpholin-4-yl)ethanesulfonyl]methyl)-5-fluoro-1,3-benzothiazol-6-yl]pyridin-2-yl} carbamate], the pIC50 was 7.82.
The molecule `CC(C)S(=O)(=O)C(C(=O)NCC(=O)NC1CC1)c1nc2cc(-c3cn(C)c(=O)c4ccccc34)c(F)cc2s1` (stereo not drawn) [Example 276, N-[(cyclopropyl-carbamoyl)methyl]-2-[6-fluoro-5-(2-methyl-1-oxo-1,2-dihydro-isoquinolin-4-yl)-1,3-benzothiazol-2-yl]-2-(propane-2-sulfonyl) acetamide] showed a pIC50 of 8.10.

Still in this experiment, the particulars now being: EL from conditioned media of HT-1080 cells; 30 min preincubation at 37° C.
Molecule `CS(=O)(=O)C(C(=O)NCC(=O)NC1CC1)c1nc2cc(F)c(-c3ccc(NC(=O)OCc4ccccc4)cc3)cc2s1` (stereo not drawn) [Example 1, Benzyl N-{4-[2-({[(cyclopropylcarbamoyl)methyl]carbamoyl}(methanesulfonyl)methyl)-5-fluoro-1,3-benzothiazol-6-yl]phenyl}carbamate] showed a negative logarithm of the IC50 (pIC50) of 8.52.

Usually pIC50 stands for −log10 of the IC50, conventionally taken in molar units. High values mean a low IC50, low ones a high IC50.

These data come from patent US10173991B2, “Sulfone amide linked benzothiazole inhibitors of endothelial lipase” (BRISTOL-MYERS SQUIBB COMPANY, priority 2014, dated 2019).
